Measured values published in patent EP1495019B1, “GLUCOPYRANOSIDE, PROCESS FOR ISOLATION THEREOF, PHARMACEUTICAL COMPOSITION CONTAINING SAME AND USE THEREOF” (COUNCIL OF SCIENTIFIC AND INDUSTRIAL RESEARCH, priority 2002, dated 2003).

Tested on: Wistar rats
Assay: hypoglycaemic activity in 18 hour fasted Wistar rats
Format: in vivo
Description: The compound was evaluated for hypoglycaemic activity in 18 hour fasted Wistar rats. […] The mean fall recorded was 24 mg/100 ml blood, from an initial mean of 91 to mean of 67 mg/100 ml blood.

Compound	mean fall (positive control, dose not given)	hypoglycaemic effect (dose of 15 mg/kg p.o.)	mean (after treatment) (dose of 15 mg/kg p.o., from an initial mean of 91) [mg/100 ml blood]	mean fall (dose of 15 mg/kg p.o., initial mean of 91 mg/100 ml blood) [mg/100 ml blood]
CCCNC(=O)NS(=O)(=O)c1ccc(Cl)cc1 [chlorpropamide, reference compound]	18 mg/100 ml of blood	–	–	–
OC[C@H]1O[C@@H](c2c(O)ccc3cc(Cc4ccc(O)cc4)oc23)[C@H](O)[C@@H](O)[C@@H]1O [formula 1, 6-hydroxy-2-p-hydroxybenzylbenzofuran-7-C-β-D-glucopyranoside]	–	hypoglycaemic effect was recorded in all the treated rats	67	24
